Measurements taken from patent US20250313560A1, “Novel bicyclic benzylamido pyridine derivatives as SOS1 inhibitors” (Boehringer Ingelheim International GmbH, priority 2024, published 2025).
Read-outs that look alike come from different tables or passages of the source.

Assays:
[1] = molecular target: SOS1 and KRAS G12D (Homo sapiens (Human), UniProt Q07889); experiment: KRAS::SOS1 AlphaScreen binding assay (KRAS G12D); conditions: average of at least two measurements
Method: (§1) Low IC50 values are indicative of high potency of the SOS1 inhibitor compound in this assay setting:
(§2) • GST-tagged SOS1 (564_1049_GST_TEV_ECO) produced in-house • 6xHis-Tev-K-RasG12D/G12C(1-169)Avi produced in-house • GDP (Sigma Cat No G7127) • AlphaLISA Glutathione Acceptor Beads (PerkinElmer, Cat No AL109) • AlphaScreen Streptavidin Donor Beads (PerkinElmer Cat No 6760002) • Assay plates: Proxiplate-384 PLUS, white (PerkinElmer, Cat No 6008289)
(§3) [formula] • KRAS::SOS1 GDP mix: • 7.5 nM (final assay concentration) K-RasG12C, 10 nM (final assay concentration) K-RasG12D, 10 μM (final assay concentration) GDP and 5 nM (final assay concentration) GST-SOS1 are mixed in assay buffer prior to use and kept at rt. Bead mix: • AlphaLISA Glutathione Acceptor Beads and AlphaScreen Streptavidin Donor Beads are mixed in the dark in assay buffer at a concentration of 10 μg/mL (final assay concentration) each prior to use and kept at rt.
(§4) Compounds are diluted to a final start concentration of 100 μM and are tested in duplicate. Assay-ready plates (ARPs) are generated using an Access Labcyte Workstation with a Labcyte Echo 550 or 555 acoustic dispenser. For compound a start concentration of 100 μM, 150 nL of compound solution is transferred per well in 11 concentrations in duplicate with serial 1:5 dilutions.
(§5) The assay is run using a fully automated robotic system in a darkened room below 100 Lux. 10 μL of KRAS::SOS1 GDP mix is added into columns 1-24 to the 150 nL of compound solution (final dilution in the assay 1:100, final DMSO concentration 1%).
(§6) After a 30 minute incubation time, 5 μL of bead mix is added into columns 1-23. Plates are kept at rt in a darkened incubator. After a further 60 minutes incubation, the signal is measured using a PerkinElmer Envision HTS Multilabel Reader using the AlphaScreen specifications from PerkinElmer. Each plate contains the following controls:
(§7) diluted DMSO+KRAS::SOS1 GDP mix+bead mix
(§8) diluted DMSO+KRAS::SOS1 GDP mix
(§9) Result calculation: IC50 values are calculated and analyzed using a 4 parametric logistic model.
(§10) Table 1: Inhibition values for KRAS G12C as well as for KRAS G12D. […] The value indicates an average value of at least two measurements.

[2] = tested on: human hepatocytes; experiment: Metabolic stability in human hepatocytes; conditions: 1 μM test compound, 50% human serum, percentage of liver blood flow
[3] = tested on: ERK phosphorylation in NCI-H358 SOS2 KO cells (KRAS G12C); experiment: Erk phosphorylation assay; format: cell-based, human; conditions: EGF stimulated, average of at least two measurements, read-out: pERK IC50
Method: Low IC50 values are indicative of high potency of the SOS1 inhibitor compounds in this assay setting.
ERK phosphorylation assays are performed using the following human cell line: • NCI-H358 SOS2 KO (Hofmann, Gmachl, Ramharter et al, Cancer Discov. 2021, 11(1):142-15): human lung cancer with a KRAS G12C mutation;
NCI-H358 SOS2 KO are seeded at 50000 cells per well in 60 μL of DMEM with 2% FBS, in Greiner TC 384 plates. The cells are incubated overnight in an incubator at 37° C. and 5% CO2 in a humidified atmosphere. 60 nL compound solution (10 mM DMSO stock solution) is then added using a Beckman Coulter Labcyte Echo 550 device. After 50 min incubation in the aforementioned incubator, 5 nl EGF are added to each well for a final concentration of approx. 8 ng/mL using a Beckman Coulter Labcyte Echo 550 device and cells are incubated for another 10-15 minutes before lysis. The medium is removed, and the cells are lysed by addition of 20 μL of 1.6-fold lysis buffer from the AlphaLISA SureFire Ultra pERK1/2 (Thr202/Tyr204) Assay Kit with added protease inhibitors. After 20 minutes of incubation at rt with shaking, 6 μL of each lysate sample is transferred to a 384-well Proxiplate and analyzed for pERK (Thr202/Tyr204) with the AlphaLISA SureFire Ultra pERK1/2 (Thr202/Tyr204) Assay Kit. 3 μL Acceptor Mix and 3 μL Donor Mix are added under subdued light and incubated for 2 h at rt in the dark, before the signal is measured on a Perkin Elmer Envision plate reader using 384 AlphaScreen settings for Proxiplates. Data are fitted by iterative calculation with variable hill slope. The sigmoidal curve slope is fitted using a default fitting curve to ascertain IC50 values.
Table 2: Erk Phosphorylation assay. The value indicates an average value of at least two measurements.

[4] = molecular target: CYP3A4 (Homo sapiens (Human), UniProt P08684); experiment: Mechanism-based inhibition of CYP3A4 assay (MBI 3A4); format: in vitro ADME; conditions: human liver microsomes, midazolam substrate, hydroxy-midazolam formation after 30 min preincubation relative to 0 min; for inhibition at 30 min: human, probe midazolam 15 μM (hydroxy-midazolam formation), read-out: MBI inhibition % ctrl. [%] with MDZ
Sequence of CYP3A4 (P08684 whole entry): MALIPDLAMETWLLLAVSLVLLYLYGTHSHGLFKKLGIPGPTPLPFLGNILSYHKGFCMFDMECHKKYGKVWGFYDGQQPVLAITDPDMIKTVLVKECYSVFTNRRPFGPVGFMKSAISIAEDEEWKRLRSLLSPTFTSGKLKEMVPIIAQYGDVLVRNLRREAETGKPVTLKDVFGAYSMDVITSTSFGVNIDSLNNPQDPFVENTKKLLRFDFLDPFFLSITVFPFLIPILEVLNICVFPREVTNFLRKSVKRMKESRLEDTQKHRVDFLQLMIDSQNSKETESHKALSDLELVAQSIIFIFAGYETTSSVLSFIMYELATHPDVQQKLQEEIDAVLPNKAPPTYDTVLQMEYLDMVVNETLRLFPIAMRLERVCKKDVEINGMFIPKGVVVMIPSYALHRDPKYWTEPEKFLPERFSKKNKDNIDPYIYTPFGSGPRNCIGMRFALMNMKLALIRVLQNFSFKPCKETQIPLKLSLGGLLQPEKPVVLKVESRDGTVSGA
Method: Mechanism-Based Inhibition of CYP3A4 assay (MBI 3A4): The mechanism-based inhibition towards CYP3A4 is assayed in human liver microsomes with midazolam as substrate. The test compounds and water control (wells w/o test compound) are preincubated in presence of NADPH (1 mM) with human liver microsomes (0.2 mg/mL) at a concentration of 0, 5 and 25 μM for 0, 10 and 30 min. After preincubation, the incubate is diluted 1:10 (to 0.02 mg/mL) and the substrate midazolam (15 μM) is added for the main incubation (10 min). The main incubation is quenched with ACN and the formation of hydroxy-midazolam is quantified via LC/MS-MS. The formation of hydroxy-midazolam from the 30 min preincubation relative to the formation from the 0 min preincubation is used as a readout. Values of less than 100% mean that the substrate midazolam is metabolized to a lower extent upon 30 min preincubation compared to 0 min preincubation. In general, low effects upon 30 min preincubation are desired (corresponding to values close to 100%/not different to the values determined with water control).
Table 5: Mechanism-based inhibition of P450 isoenzyme 3A4 with midazolam as substrate.

[5] = molecular target: P450 3A4 (Homo sapiens (Human), UniProt P08684); experiment: Cytochrome P450 isoenzyme inhibition assay (P450 3A4, midazolam); format: in vitro ADME; conditions: human liver microsomes, Midazolam as substrate; read-out: CYP3A4 inhibition IC50
Sequence of P450 3A4 (P08684 whole entry): as above
Method: For the following cytochrome P450 isoenzymes, these substrates and metabolic reactions are monitored: P450 3A4: hydroxylation of Midazolam (MDZ).
The final incubation volume contains TRIS buffer (0.1 M), MgCl2 (5 mM), a certain concentration of human liver microsomes dependent on the P450 isoenzyme measured (P450 3A4: 0.1 mg/ml) and a certain concentration of the individual substrate for each isoenzyme (P450 3A4: Midazolam 5 μM).
The effect of the test compound is determined at five different concentrations in duplicate (e.g. highest concentration 50 μM with subsequent serial 1:4 dilutions) or without test compound (high control). Following a short preincubation period, reactions are started with the cofactor (NADPH, 1 mM) and stopped by cooling the incubation down to 8° C. and subsequently by addition of one volume of ACN. An internal standard solution—usually the stable isotope of the formed metabolite—is added after quenching of incubations. Peak area analyte (=metabolite formed) and internal standard is determined by LC-MS/MS. The resulting peak area ratio analyte to internal standard in these incubations is compared to a control activity containing no test compound. Within each of the assay runs, the IC50 of a positive control inhibitor dependent on the P450 isoenzyme measured (P450 3A4: ketoconazole) is determined. The assay results are plotted against compound concentrations to calculated IC50 values (half maximal inhibitory concentrations) for inhibitory compounds utilizing Software IDBS E-WorkBook.
Table 4: Inhibition of P450 isoenzyme 3A^4.

[6] = molecular target: SOS1 and KRAS G12C (Homo sapiens (Human), UniProt Q07889); experiment: KRAS::SOS1 AlphaScreen binding assay (KRAS G12C); conditions: average of at least two measurements
Sequence of SOS1 and KRAS G12C (Q07889 564-1049, stated change not applied): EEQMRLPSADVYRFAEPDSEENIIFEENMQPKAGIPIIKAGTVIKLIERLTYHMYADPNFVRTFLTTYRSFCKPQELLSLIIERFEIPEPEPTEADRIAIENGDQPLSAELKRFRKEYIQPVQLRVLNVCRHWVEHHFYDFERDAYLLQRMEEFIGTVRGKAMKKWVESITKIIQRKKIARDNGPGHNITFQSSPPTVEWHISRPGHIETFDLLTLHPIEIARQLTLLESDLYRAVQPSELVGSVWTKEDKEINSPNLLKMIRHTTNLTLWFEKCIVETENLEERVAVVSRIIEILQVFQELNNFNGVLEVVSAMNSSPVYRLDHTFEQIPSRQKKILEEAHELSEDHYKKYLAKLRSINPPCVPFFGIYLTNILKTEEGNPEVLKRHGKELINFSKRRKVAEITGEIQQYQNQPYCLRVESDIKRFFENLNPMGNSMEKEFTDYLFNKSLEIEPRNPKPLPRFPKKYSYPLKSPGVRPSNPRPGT
Method: as §1, §2, §3, §4, §5, §6, §7, §8, §9, §10

[7] = Homo sapiens, NCI-H358, NCI-H358 SOS2 KO cells

Sequence of SOS1 and KRAS G12D (Q07889 564-1049, stated change not applied): as above

| SMILES | IC50 [1] | Hepatic clearance - QH[%] in human hepatocytes [2] | IC50 [3, 7] | inhibition at 30 min [4] | IC50 [5] | IC50 [6] | IC50 ([3]; NCI-H358 SOS2 KO cells) | MBI inhibition % ctrl. [%] with MDZ [4] |
| --- | --- | --- | --- | --- | --- | --- | --- | --- |
| C[C@@H](NC(=O)c1cc([C@H]2CC[C@H](N3CC[C@H](O)C3)CC2)c2ncnn2c1)c1cccc(C(F)(F)F)c1F [Example E69] | 23 nM | <4% | 218 nM | 85% | > 50000 nM | 28 nM |  |  |
| C[C@@H]1C[C@H](O)CN1C1CCN(c2cc(C(=O)N[C@H](C)c3cccc(C(F)(F)F)c3F)cn3ncnc23)CC1 [Example E24] | 46 nM | 22% |  |  | > 50000 nM | 56 nM | 325 nM | 99% |
| C[C@@H](NC(=O)c1cc([C@H]2CC[C@H](N3C[C@H](F)C[C@@H]3CO)CC2)c2ncnn2c1)c1cccc(C(F)F)c1F [Example E60] | 20 nM | 26% | 290 nM | 90% | > 50000 nM | 21 nM |  |  |
| C[C@@H](NC(=O)c1cc(N2CCC(NC3COCC3O)CC2)c2ncnn2c1)c1cccc(C(F)(F)F)c1F (single isomer, unassigned) [Example cis-E41b] | 38 nM | 26% |  | 95% | > 50000 nM | 41 nM | 367 nM |  |
| C[C@@H](NC(=O)c1cc(N2CCC(N3C[C@@H](O)C[C@@H]3C)CC2)c2ncnn2c1)c1cccc(C(F)F)c1F [Example E12] | 24 nM | 12% | 110 nM | 79% | > 50000 nM | 30 nM |  |  |
| C[C@@H](NC(=O)c1cc([C@H]2CC[C@H](N3CC[C@](C)(O)C3)CC2)c2ncnn2c1)c1cccc(C(F)F)c1F [Example E59] | 41 nM | 15% | 166 nM | 99% | > 50000 nM | 42 nM |  |  |
| C[C@@H](NC(=O)c1cc(N2CCC(O)(C3CCCN3)CC2)c2ncnn2c1)c1cccc(C(F)F)c1F (single isomer, unassigned) [Example E38b] | 41 nM | 11% |  |  | > 50000 nM | 59 nM | 217 nM | 86% |
| C[C@@H](NC(=O)c1cc([C@H]2CC[C@H](N3CCC(F)C(O)C3)CC2)c2ncnn2c1)c1cccc(C(F)F)c1F (single isomer, unassigned) [Example trans-E61b] | 32 nM | 30% |  |  | > 50000 nM | 32 nM | 138 nM | 101% |
| C[C@@H](NC(=O)c1cc(N2CCC(N(C)CC(C)(C)O)CC2)c2ncnn2c1)c1cccc(C(F)F)c1F [Example E7] | 43 nM | 31% | 246 nM | 106% | > 50000 nM | 50 nM |  |  |
| C[C@@H](NC(=O)c1cc(N2CCC(N3CCC[C@H](O)C3)CC2)c2ncnn2c1)c1cccc(C(F)F)c1F [Example E18] | 37 nM | 17% | 54 nM | 99% | > 50000 nM | 49 nM |  |  |
| C[C@@H](NC(=O)c1cc(N2CCC(N3CC[C@H](CO)C3)CC2)c2ncnn2c1)c1cccc(C(F)(F)F)c1F [Example E26] | 78 nM | 8% | 147 nM | 92% | > 50000 nM | 86 nM |  |  |
